This is an account of results in ChEMBL document CHEMBL3132769, “Fragment growing to retain or alter the selectivity of anchored kinase hinge-binding fragments” (Medchemcomm, 2014).

Test [1] relates to Fibroblast growth factor receptor 2 (Homo sapiens), P21802 [N549H]. Put plainly: Inhibition of human FGFR2 N549H mutant catalytic domain expressed in baculovirus assessed as substrate phosphorylation using fluorescence-labelled peptides as substrate at 0.2 uM after 90 mins by microfluidic peptide phosphorylation assay.
Fibroblast growth factor receptor 2 (Homo sapiens), P21802 [N549H], sequence (P21802 whole entry N549H, the tested form may be a part): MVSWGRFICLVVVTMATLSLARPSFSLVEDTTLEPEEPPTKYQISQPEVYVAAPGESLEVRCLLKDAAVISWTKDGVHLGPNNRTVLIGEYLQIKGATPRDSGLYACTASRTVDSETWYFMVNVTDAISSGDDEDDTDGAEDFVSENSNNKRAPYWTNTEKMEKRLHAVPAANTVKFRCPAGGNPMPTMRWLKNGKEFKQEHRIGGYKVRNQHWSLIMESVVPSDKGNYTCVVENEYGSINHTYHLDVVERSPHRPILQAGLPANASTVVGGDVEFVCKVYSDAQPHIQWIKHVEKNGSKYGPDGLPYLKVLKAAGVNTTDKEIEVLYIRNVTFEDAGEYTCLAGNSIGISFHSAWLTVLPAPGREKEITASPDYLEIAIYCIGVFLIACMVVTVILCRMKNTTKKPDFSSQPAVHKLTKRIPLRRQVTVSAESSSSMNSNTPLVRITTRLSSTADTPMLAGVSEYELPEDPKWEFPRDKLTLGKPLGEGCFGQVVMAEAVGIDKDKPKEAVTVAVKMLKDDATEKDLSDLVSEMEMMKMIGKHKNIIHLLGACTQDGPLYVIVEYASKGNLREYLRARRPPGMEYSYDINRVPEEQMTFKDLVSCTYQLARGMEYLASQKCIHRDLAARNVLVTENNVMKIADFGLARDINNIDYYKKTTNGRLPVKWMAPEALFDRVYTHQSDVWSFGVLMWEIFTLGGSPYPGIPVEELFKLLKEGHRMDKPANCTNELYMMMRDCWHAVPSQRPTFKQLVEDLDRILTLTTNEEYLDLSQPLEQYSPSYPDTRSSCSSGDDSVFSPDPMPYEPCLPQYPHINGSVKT
The target in test [2] is T1, Serine/threonine-protein kinase D2 (Homo sapiens) (UniProt Q9BZL6).
T1 sequence (whole entry): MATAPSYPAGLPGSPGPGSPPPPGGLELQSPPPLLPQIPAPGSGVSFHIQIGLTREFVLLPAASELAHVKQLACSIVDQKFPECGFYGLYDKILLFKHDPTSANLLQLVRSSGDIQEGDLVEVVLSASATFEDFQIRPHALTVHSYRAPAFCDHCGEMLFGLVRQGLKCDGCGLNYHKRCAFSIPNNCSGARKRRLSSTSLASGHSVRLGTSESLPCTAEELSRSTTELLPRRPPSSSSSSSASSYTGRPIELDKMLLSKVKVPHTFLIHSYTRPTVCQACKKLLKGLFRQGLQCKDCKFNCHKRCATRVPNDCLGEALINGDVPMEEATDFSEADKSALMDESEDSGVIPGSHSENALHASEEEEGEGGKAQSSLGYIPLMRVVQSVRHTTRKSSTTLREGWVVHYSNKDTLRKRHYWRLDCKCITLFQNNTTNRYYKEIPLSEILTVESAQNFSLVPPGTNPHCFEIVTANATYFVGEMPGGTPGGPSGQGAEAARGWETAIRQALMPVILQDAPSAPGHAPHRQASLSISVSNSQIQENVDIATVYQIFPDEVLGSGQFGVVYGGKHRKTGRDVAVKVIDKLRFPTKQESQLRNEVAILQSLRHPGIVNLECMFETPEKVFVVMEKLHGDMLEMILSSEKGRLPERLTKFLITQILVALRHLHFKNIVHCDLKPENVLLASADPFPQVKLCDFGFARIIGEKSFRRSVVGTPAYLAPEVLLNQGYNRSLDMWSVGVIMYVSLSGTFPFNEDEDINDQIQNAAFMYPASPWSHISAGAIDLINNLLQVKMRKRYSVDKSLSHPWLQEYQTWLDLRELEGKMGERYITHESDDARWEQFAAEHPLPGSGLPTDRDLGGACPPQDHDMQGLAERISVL
Description: Inhibition of human full length PKD2 expressed in baculovirus assessed as substrate phosphorylation using fluorescence-labelled peptides as substrate at 95 uM after 90 mins by microfluidic peptide phosphorylation assay.

The target of test [3] is T2, Protein kinase C epsilon type (Homo sapiens) (UniProt Q02156).
T2 sequence (whole entry): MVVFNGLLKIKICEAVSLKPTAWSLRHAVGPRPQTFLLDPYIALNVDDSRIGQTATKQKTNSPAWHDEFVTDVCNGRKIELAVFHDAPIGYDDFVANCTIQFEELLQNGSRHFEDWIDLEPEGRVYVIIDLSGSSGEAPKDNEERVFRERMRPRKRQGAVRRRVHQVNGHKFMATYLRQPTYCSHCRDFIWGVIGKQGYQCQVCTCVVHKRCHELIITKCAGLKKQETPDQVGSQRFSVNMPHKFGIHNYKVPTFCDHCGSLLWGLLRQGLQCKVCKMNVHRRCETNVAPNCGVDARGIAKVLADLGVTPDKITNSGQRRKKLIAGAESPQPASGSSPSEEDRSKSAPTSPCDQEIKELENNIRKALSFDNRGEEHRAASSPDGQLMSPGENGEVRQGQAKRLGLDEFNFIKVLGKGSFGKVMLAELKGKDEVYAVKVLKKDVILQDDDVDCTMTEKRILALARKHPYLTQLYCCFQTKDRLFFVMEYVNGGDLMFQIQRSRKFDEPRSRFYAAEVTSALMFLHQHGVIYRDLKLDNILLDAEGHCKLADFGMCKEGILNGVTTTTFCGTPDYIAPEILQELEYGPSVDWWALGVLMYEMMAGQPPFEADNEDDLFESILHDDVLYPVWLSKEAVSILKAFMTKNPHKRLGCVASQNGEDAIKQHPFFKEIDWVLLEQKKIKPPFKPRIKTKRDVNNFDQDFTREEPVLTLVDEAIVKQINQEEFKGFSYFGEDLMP
Description: Inhibition of human truncated PKC epsilon expressed in baculovirus assessed as substrate phosphorylation using fluorescence-labelled peptides as substrate at 8 uM after 90 mins by microfluidic peptide phosphorylation assay.

The target of test [4] is T3, Mitogen-activated protein kinase 12 (Homo sapiens) (UniProt P53778).
T3 sequence (whole entry): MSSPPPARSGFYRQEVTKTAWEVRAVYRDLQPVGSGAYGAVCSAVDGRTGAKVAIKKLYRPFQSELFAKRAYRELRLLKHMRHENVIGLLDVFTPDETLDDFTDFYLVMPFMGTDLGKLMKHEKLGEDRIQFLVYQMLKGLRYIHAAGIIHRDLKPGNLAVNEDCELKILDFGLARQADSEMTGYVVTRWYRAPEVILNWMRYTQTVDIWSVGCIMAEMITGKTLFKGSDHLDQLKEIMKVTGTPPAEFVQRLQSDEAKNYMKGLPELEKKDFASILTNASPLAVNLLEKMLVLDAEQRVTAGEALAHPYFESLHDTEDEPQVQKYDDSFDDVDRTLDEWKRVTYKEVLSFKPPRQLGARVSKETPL
Description: Inhibition of human full length p38 gamma expressed in Escherichia coli cell assessed as substrate phosphorylation using fluorescence-labelled peptides as substrate at […] after 90 mins by microfluidic peptide phosphorylation assay.

In test [5] the target is Mitogen-activated protein kinase 3 (Homo sapiens) (UniProt P27361). Put plainly: Inhibition of human full length ERK1 expressed in Escherichia coli cell assessed as substrate phosphorylation using fluorescence-labelled peptides as substrate at 0.06 uM after 90 mins by microfluidic peptide phosphorylation assay.
Mitogen-activated protein kinase 3 (Homo sapiens), sequence (P27361 whole entry, the tested form may be a part): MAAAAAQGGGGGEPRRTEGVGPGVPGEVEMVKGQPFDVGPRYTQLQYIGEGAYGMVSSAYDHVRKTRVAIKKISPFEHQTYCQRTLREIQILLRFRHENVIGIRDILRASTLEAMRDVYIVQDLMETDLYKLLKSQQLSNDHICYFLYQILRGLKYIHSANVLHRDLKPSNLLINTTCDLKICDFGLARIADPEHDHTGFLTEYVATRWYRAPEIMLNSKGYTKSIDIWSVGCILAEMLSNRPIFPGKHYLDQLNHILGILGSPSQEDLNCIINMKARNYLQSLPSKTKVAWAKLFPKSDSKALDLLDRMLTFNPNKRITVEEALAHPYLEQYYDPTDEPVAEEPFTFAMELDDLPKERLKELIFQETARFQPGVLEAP
The target of test [6] is Fibroblast growth factor receptor 1 (Homo sapiens) (UniProt P11362). Put plainly: Inhibition of human FGFR1 catalytic domain expressed in baculovirus assessed as substrate phosphorylation using fluorescence-labelled peptides as substrate at 2 uM after 90 mins by microfluidic peptide phosphorylation assay.
Fibroblast growth factor receptor 1 (Homo sapiens), sequence (P11362 22-822 limits assumed): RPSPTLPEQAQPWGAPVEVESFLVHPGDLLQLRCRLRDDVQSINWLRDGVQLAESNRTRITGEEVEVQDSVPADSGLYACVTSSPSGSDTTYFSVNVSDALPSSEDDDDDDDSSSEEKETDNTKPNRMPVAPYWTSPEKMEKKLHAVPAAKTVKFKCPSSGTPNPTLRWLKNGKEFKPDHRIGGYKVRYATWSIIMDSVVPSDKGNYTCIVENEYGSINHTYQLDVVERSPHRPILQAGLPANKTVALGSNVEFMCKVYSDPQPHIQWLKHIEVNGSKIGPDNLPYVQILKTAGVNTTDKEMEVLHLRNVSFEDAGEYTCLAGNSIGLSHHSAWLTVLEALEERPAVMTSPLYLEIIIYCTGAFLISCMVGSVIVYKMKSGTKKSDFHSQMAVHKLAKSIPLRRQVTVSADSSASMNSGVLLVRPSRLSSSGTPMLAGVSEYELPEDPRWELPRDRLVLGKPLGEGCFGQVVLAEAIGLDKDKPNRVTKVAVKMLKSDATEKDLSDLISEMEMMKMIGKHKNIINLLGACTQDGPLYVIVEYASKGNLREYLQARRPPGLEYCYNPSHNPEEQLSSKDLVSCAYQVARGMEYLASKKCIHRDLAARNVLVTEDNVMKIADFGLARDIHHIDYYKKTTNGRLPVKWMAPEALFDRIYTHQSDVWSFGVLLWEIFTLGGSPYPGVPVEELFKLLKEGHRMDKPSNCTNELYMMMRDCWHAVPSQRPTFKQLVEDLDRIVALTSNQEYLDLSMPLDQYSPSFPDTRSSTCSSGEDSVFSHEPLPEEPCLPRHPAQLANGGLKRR

By inhibition is commonly meant how much of the control response was suppressed. For the compound `Clc1ccc(C2(c3ccc(-c4ncnc5[nH]cnc45)cc3)CCNCC2)cc1`, in test [1], the inhibition was 7%.

With `NCCc1ccc(-c2ncnc3[nH]cnc23)cc1`, in test [2], the inhibition is 77.5%.

For `NCC1CCN(c2ncnc3[nH]ccc23)CC1`, the inhibition in test [3] came to 34%.

Take `COC(=O)c1cnc(Nc2cnc(C#N)cn2)cc1NCC1CCNCC1`: in test [4], the inhibition worked out at 1.5%.

For `NC1(Cc2ccc(Cl)cc2)CCN(c2ncnc3[nH]ccc23)CC1`, in test [5], the inhibition worked out at 0%.

Consider `NC1CCN(c2ncnc3[nH]ccc23)CC1`, for which the inhibition in test [6] is 1.5%.
